Measured values published in ChEMBL document CHEMBL2169878 (J Med Chem, 2012).
The source made the active and inactive calls. The calls are words filed in the database; no cut-off is given here.

Columns and labels:
Salmonella typhimurium [1] = experiment: Mutagenicity against Salmonella typhimurium TA100 assessed as revertants at 34 uM incubated for 90 mins followed by drug washout measured after 2 days relative to positive control; type: toxicity, organism-based; settings: salmonella enterica subsp. enterica serovar typhimurium
Plasmodium berghei [2] = experiment: Antimalarial activity against Plasmodium berghei ANKA expressing GFP infected in mouse assessed as mean survival days at 30 mg/kg, po administered 24 hrs post-infection (reference value: 6 to 7 days); type: functional
Plasmodium berghei [3] = experiment: Antimalarial activity against Plasmodium berghei ANKA expressing GFP infected in mouse assessed as cure from infection at 30 mg/kg, po administered 24 hrs post-infection measured on day 30; type: functional, organism-based; set-up: dose 30 mg/kg
Plasmodium falciparum [4] = experiment: Antiplasmodial activity against chloroquine-sensitive Plasmodium falciparum NF54 infected in human erythrocytes assessed as inhibition of [3H]hypoxanthine incorporation incubated for 48 hrs prior to [3H]hypoxanthine addition measured after 48 hrs by liquid scintillation counting; type: functional, organism-based
Salmonella typhimurium [5] = experiment: Mutagenicity against Salmonella typhimurium TA98 assessed as revertants at 17 uM incubated for 90 mins followed by drug washout measured after 2 days relative to positive control; type: toxicity, organism-based; settings: salmonella enterica subsp. enterica serovar typhimurium
Plasmodium berghei [6] = experiment: Antimalarial activity against Plasmodium berghei ANKA expressing GFP infected in mouse assessed as mean survival days at 30 mg/kg, po administered QD for 3 days (reference value: 6 to 7 days); type: functional
Salmonella typhimurium [7] = experiment: Mutagenicity against Salmonella typhimurium TA98 assessed as revertants at 34 uM incubated for 90 mins followed by drug washout measured after 2 days relative to positive control; type: toxicity, organism-based; settings: salmonella enterica subsp. enterica serovar typhimurium, 1.5 h
Plasmodium berghei [8] = experiment: Antimalarial activity against Plasmodium berghei ANKA expressing GFP infected in mouse assessed as reduction in parasitemia at 100 mg/kg, po administered 24 hrs post-infection measured 48 hrs post-dosing by flow cytometric analysis; type: functional; set-up: scale not given: the % may be the effect or the level left
Plasmodium berghei [9] = experiment: Antimalarial activity against Plasmodium berghei ANKA expressing GFP infected in mouse assessed as cure from infection at 50 mg/kg, po administered QD for 3 days measured on day 30; type: functional, organism-based; set-up: dose 50 mg/kg
Plasmodium berghei [10] = experiment: Antimalarial activity against Plasmodium berghei ANKA expressing GFP infected in mouse assessed as reduction in parasitemia at 30 mg/kg, po administered at 6,24,48 and 72 hrs post-infection measured 24 hrs post-final dosing by flow cytometric analysis; type: functional; set-up: scale not given: the % may be the effect or the level left
Plasmodium berghei [11] = experiment: Antimalarial activity against Plasmodium berghei ANKA expressing GFP infected in mouse assessed as cure from infection at 30 mg/kg, po administered at 6,24,48 and 72 hrs post-infection measured on day 30; type: functional, organism-based; set-up: dose 30 mg/kg
Plasmodium berghei [12] = experiment: Antimalarial activity against Plasmodium berghei ANKA expressing GFP infected in mouse assessed as mean survival days at 30 mg/kg, po administered at 6,[…],[…] and 72 hrs post-infection (reference value: 6 to 7 days); type: functional
Plasmodium falciparum [13] = experiment: Resistance ratio of IC50 for chloroquine-resistant Plasmodium falciparum W2 to IC50 for chloroquine-sensitive Plasmodium falciparum D10; type: functional
Salmonella typhimurium [14] = experiment: Mutagenicity against Salmonella typhimurium TA98 assessed as revertants at 8 uM incubated for 90 mins followed by drug washout measured after 2 days relative to positive control; type: toxicity, organism-based; settings: salmonella enterica subsp. enterica serovar typhimurium, 1.5 h
Salmonella typhimurium [15] = experiment: Mutagenicity against Salmonella typhimurium TA98 assessed as revertants at 2 uM incubated for 90 mins followed by drug washout measured after 2 days relative to positive control; type: toxicity, organism-based; settings: salmonella enterica subsp. enterica serovar typhimurium, 1.5 h
Plasmodium berghei [16] = experiment: Antimalarial activity against Plasmodium berghei ANKA expressing GFP infected in mouse assessed as reduction in parasitemia at 30 mg/kg, po administered QD for 3 days measured 24 hrs post-final dosing by flow cytometric analysis; type: functional; set-up: scale not given: the % may be the effect or the level left
Salmonella typhimurium [17] = experiment: Mutagenicity against Salmonella typhimurium TA98 assessed as revertants at 4 uM incubated for 90 mins followed by drug washout measured after 2 days relative to positive control; type: toxicity, organism-based; settings: salmonella enterica subsp. enterica serovar typhimurium
[18] = biological target: T1, Chloroquine resistance transporter (Plasmodium falciparum) (UniProt Q9N623); experiment: Inhibition of chloroquine-sensitive Plasmodium falciparum D10 CRT expressed in Xenopus laevis oocyte assessed as inhibition of [3H]chloroquine uptake at 100 uM measured from 1 to 2 hrs
T1 sequence (whole entry): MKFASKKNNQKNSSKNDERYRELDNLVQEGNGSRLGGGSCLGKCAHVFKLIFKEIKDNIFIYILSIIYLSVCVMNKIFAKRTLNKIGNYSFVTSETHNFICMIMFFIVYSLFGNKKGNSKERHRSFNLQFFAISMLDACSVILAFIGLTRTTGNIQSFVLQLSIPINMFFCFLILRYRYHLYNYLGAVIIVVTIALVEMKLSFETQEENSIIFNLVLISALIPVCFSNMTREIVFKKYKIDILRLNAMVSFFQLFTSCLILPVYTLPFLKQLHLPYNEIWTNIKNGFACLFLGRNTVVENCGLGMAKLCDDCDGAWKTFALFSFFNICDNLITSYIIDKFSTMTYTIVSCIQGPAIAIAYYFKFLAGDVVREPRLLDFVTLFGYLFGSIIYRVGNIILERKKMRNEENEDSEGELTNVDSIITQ

Plasmodium falciparum [19] = experiment: Antiplasmodial activity against chloroquine-sensitive Plasmodium falciparum D10 infected in human RBC after 72 hrs by parasite lactate dehydrogenase assay; type: functional, organism-based; settings: D10, 72 h
[20] = biological target: Chloroquine resistance transporter (Plasmodium falciparum, UniProt Q9N623); experiment: Inhibition of chloroquine-resistant Plasmodium falciparum Dd2 CRT expressed in Xenopus laevis oocyte assessed as inhibition of [3H]chloroquine uptake measured from 1 to 2 hrs
Plasmodium berghei [21] = experiment: Antimalarial activity against Plasmodium berghei ANKA expressing GFP infected in mouse assessed as mean survival days at 50 mg/kg, po administered QD for 3 days (reference value: 6 to 7 days); type: functional
Salmonella typhimurium [22] = experiment: Mutagenicity against Salmonella typhimurium TA100 assessed as revertants at 3 uM incubated for 90 mins followed by drug washout measured after 2 days relative to positive control; type: toxicity, organism-based; settings: salmonella enterica subsp. enterica serovar typhimurium, 1.5 h
Plasmodium falciparum [23] = experiment: Antiplasmodial activity against chloroquine-resistant Plasmodium falciparum W2 infected in human RBC after 72 hrs by parasite lactate dehydrogenase assay; type: functional, organism-based; settings: W2, 72 h
Salmonella typhimurium [24] = experiment: Mutagenicity against Salmonella typhimurium TA100 assessed as revertants at 1 uM incubated for 90 mins followed by drug washout measured after 2 days relative to positive control; type: toxicity, organism-based; settings: salmonella enterica subsp. enterica serovar typhimurium, 1.5 h
Plasmodium berghei [25] = experiment: Antimalarial activity against Plasmodium berghei ANKA expressing GFP infected in mouse assessed as cure from infection at 100 mg/kg, po administered 24 hrs post-infection measured on day 30; type: functional, organism-based; set-up: dose 100 mg/kg
Plasmodium berghei [26] = experiment: Antimalarial activity against Plasmodium berghei ANKA expressing GFP infected in mouse assessed as mean survival days at 100 mg/kg, po administered 24 hrs post-infection (reference value: 6 to 7 days); type: functional
Salmonella typhimurium [27] = experiment: Mutagenicity against Salmonella typhimurium TA100 assessed as revertants at 8 uM incubated for 90 mins followed by drug washout measured after 2 days relative to positive control; type: toxicity, organism-based; settings: salmonella enterica subsp. enterica serovar typhimurium
Plasmodium falciparum [28] = experiment: Antiplasmodial activity against chloroquine-resistant Plasmodium falciparum K1 infected in human erythrocytes assessed as inhibition of [3H]hypoxanthine incorporation incubated for 48 hrs prior to [3H]hypoxanthine addition measured after 48 hrs by liquid scintillation counting; type: functional, organism-based
[29] = biological target: T1, Chloroquine resistance transporter (Plasmodium falciparum); experiment: Inhibition of chloroquine-resistant Plasmodium falciparum Dd2 CRT expressed in Xenopus laevis oocyte assessed as inhibition of [3H]chloroquine uptake at 100 uM measured from 1 to 2 hrs
Plasmodium berghei [30] = experiment: Antimalarial activity against Plasmodium berghei ANKA expressing GFP infected in mouse assessed as reduction in parasitemia at 30 mg/kg, po administered 24 hrs post-infection measured 48 hrs post-dosing by flow cytometric analysis; type: functional; set-up: scale not given: the % may be the effect or the level left
Salmonella typhimurium [31] = experiment: Mutagenicity against Salmonella typhimurium TA100 assessed as revertants at 1.5 uM incubated for 90 mins followed by drug washout measured after 2 days relative to positive control; type: toxicity, organism-based; settings: salmonella enterica subsp. enterica serovar typhimurium, 1.5 h
[32] = Cytotoxicity against mouse NIH3T3 cells after 24 hrs by neutral red dye uptake assay; type: cell-based; settings: read-out: TC50
Salmonella typhimurium [33] = experiment: Mutagenicity against Salmonella typhimurium TA98 assessed as revertants at 1 uM incubated for 90 mins followed by drug washout measured after 2 days relative to positive control; type: toxicity, organism-based; settings: salmonella enterica subsp. enterica serovar typhimurium
Plasmodium berghei [34] = experiment: Antimalarial activity against Plasmodium berghei ANKA expressing GFP infected in mouse assessed as cure from infection at 30 mg/kg, po administered QD for 3 days measured on day 30; type: functional, organism-based; set-up: dose 30 mg/kg
Plasmodium berghei [35] = experiment: Antimalarial activity against Plasmodium berghei ANKA expressing GFP infected in mouse assessed as reduction in parasitemia at 50 mg/kg, po administered QD for 3 days measured 24 hrs post-final dosing by flow cytometric analysis; type: functional; set-up: scale not given: the % may be the effect or the level left
[36] = Cytotoxicity against human HepG2 cells after 24 hrs by neutral red dye uptake assay; type: cell-based; settings: read-out: TC50
Salmonella typhimurium [37] = experiment: Mutagenicity against Salmonella typhimurium TA100 assessed as revertants at 17 uM incubated for 90 mins followed by drug washout measured after 2 days relative to positive control; type: toxicity, organism-based; settings: salmonella enterica subsp. enterica serovar typhimurium
Plasmodium falciparum [38] = experiment: Resistance ratio of IC50 for chloroquine-resistant Plasmodium falciparum K1 to IC50 for chloroquine-sensitive Plasmodium falciparum NF54; type: functional

Clc1cccc(C(Nc2ccnc3cc(Cl)ccc23)c2ccc(CN3CCNCC3)cc2)c1 (racemic)
Activity (Salmonella typhimurium [1]): 2%
MSD (Plasmodium berghei [2]): 24 days
Activity (Plasmodium berghei [3]): inactive
IC50 (Plasmodium falciparum [4]): 19 nM
Activity (Salmonella typhimurium [5]): 11%
MSD (Plasmodium berghei [6]): 30 days
Activity (Salmonella typhimurium [7]): 4%
Activity (Plasmodium berghei [8]): 99.6%
Activity (Plasmodium berghei [9]): inactive
Activity (Plasmodium berghei [10]): 99.9%
Activity (Plasmodium berghei [11]): Active
MSD (Plasmodium berghei [12]): 30 days
Ratio IC50 (Plasmodium falciparum [13]): 1.4
Activity (Salmonella typhimurium [14]): 16%
Activity (Salmonella typhimurium [15]): 7%
Activity (Plasmodium berghei [16]): 99.8%
Activity (Salmonella typhimurium [17]): 4%
inhibition [18]: inactive
IC50 (Plasmodium falciparum [19]): 25 nM
IC50 [20]: 10500 nM
MSD (Plasmodium berghei [21]): 30 days
Activity (Salmonella typhimurium [22]): 3%
IC50 (Plasmodium falciparum [23]): 33 nM
Activity (Salmonella typhimurium [24]): 6%
Activity (Plasmodium berghei [25]): Active
MSD (Plasmodium berghei [26]): 29.6 days
Activity (Salmonella typhimurium [27]): 5%
IC50 (Plasmodium falciparum [28]): 23 nM
inhibition [29]: Active
Activity (Plasmodium berghei [30]): 99.7%
Activity (Salmonella typhimurium [31]): 5%
CC50 at 24 h [32]: 16000 nM
Activity (Salmonella typhimurium [33]): 9%
Activity (Plasmodium berghei [34]): Active
Activity (Plasmodium berghei [35]): 99.8%
CC50 at 24 h [36]: < 4000 nM
Activity (Salmonella typhimurium [37]): 7%
Ratio IC50 (Plasmodium falciparum [38]): 1.2
